Results reported in US4945102A, “Heterocyclic derivatives and radiosensitizing agents and antiviral agents comprising same as their active component” (Pola Chemical Industries Inc., Japan, priority 1987, dated 1990).
Where two headings read alike, the source gives them in different places.

Key:
[1] = Acute toxicity test; assay type: in vivo; details: for General Status / LD50 at 336 h: mouse, in vivo; for LD50 at 336 h: ICR male mice, 14 days, read-out: LD50/14 (50% death rate over 14 days)
Experimental: Acute toxicity test and other tests regarding radiosensitising ability and antiviral activity were carried out using the compounds of the present invention.
ICR strain male mice of 5 week old were intravenously or intraperitoneally administered with various compounds each dissolved in a physiological saline or in a physiological saline containing 10% DMSO. The mice were observed over 14 days and 50% death rates (LD50/14) were obtained.

[2] = test system: Herpes simplex virus type I; assay: Antiviral activity test (cytopathic effect in Vero cells); assay type: cell-based; set-up: key: 0: almost all cells are dead; 1: certain effect of test agent with some dead cells; 2: normal; details: one day
Experimental: (3) Antiviral activity test Virus: Herpes simplex virus type I Cells: Vero (monkey kidney cells) Culture medium: 2% FBS MEM A sample conditioned to contain 2×10^5 /ml of vero cells was cultured at 37° C. in an atmosphere of 5% CO2 for 1 day to obtain a monolayer sample. The sample was infected by HSV virus diluted with PBS (phosphate buffer). Compound (I) was dissolved in DMSO, then adjusted to have concentrations of 100 μg/ml, 50 μg/ml, 10/μg/ml,5,μ/ml and 1 μg/ml by 2% FBS MEM, and served as test agents. The culture cells were added with each agent separately and incubated at 37° C. in a Co2 incubator for one day. The cytopathic effect was observed under microscope. Cells were stained by crystal violet and scored as follows: 0: almost all cells are dead 1: certain effect of test agent with some dead cells 2: normal The results are shown in Table 3.

[3] = test system: single cells of EMT-6; assay: Radiosensitivity test, in vitro test 1 (single cells of EMT-6, hypoxic); assay type: cell-based; details: 1.0 mM, single EMT-6 cells, 60Co gamma rays
Text: Cells used in the test: single cells of EMT-6
Irradiation: ^60 Co - gamma rays
Cell treatment to hypoxia:
A mixture gas of 95% nitrogen and 5% carbon dioxide was passed through cell suspension.
Determined by counting colonies.
Radiosensitivity enhancement ratio (ER): [formula]

[4] = test system: Spheroids of EMT-6; assay: Radiosensitivity test, in vitro test 2 (spheroids of EMT-6); assay type: cell-based; details: 1 mM, 37° C. over 30 to 60 minutes, 60Co gamma rays
Experimental: (b) In vitro test 2 Cells used in the test: Spheroids of EMT-6 Irradiation: ^60 Co - gamma rays Tested compound: Compound (3), 1 mM Determination of radiosensitivity enhancement: Six particles of spheroid having a certain size were taken and placed in a culture solution containing compound (3) having a concentration of 1 mM, and incubated at 37° C. over 30 to 60 minutes, followed by irradiation. The spheroids were treated by trypsin and then the enhancement ratio (ER) was obtained by counting colonies.

[5] = test system: EMT-6 tumor; assay: Radiosensitivity in vivo test (EMT-6 tumor); set-up: species or system Balb/c mice; details: 200 mg/kg intraperitoneal 20 minutes prior to whole body 60Co irradiation
Experimental: Tested compound: compound (3), 200 mg/kg
Compound (3) dissolved in a physiological saline was intraperitoneally administered 20 minutes prior to irradiation.
Irradiation: ^60 Co - gamma rays, whole body irradiation
Determination of radiosensitivity enhancement:
Enhancement ratio (ER) was obtained from irradiation dose and reduction ratio of tumor cells.

| Compound | Dead/Treated ([1]; intraperitoneal, 720 mg/kg) | Dead/Treated ([1]; intraperitoneal, 860 mg/kg) | General Status ([1]; ip) | LD50 at 336 h ([1]; ip, intraperitoneal) [mg/kg] | Dead/Treated ([1]; intraperitoneal, 600 mg/kg) | cytopathic effect score ([2]; 1 μg/ml) | cytopathic effect score ([2]; 5 μg/ml) | cytopathic effect score ([2]; 10 μg/ml) | cytopathic effect score ([2]; 50 μg/ml) | cytopathic effect score ([2]; 100 μg/ml) | Dead/Treated ([1]; intravenous, 720 mg/kg) | Dead/Treated ([1]; intravenous, 860 mg/kg) | General Status ([1]; iv) | LD50 at 336 h ([1]; intravenous) [mg/kg] | Radiosensitivity enhancement ratio (ER) [3] | enhancement ratio (ER) [4] | enhancement ratio (ER) [5] |
| --- | --- | --- | --- | --- | --- | --- | --- | --- | --- | --- | --- | --- | --- | --- | --- | --- | --- |
| CC(=O)OCC(COC(C)=O)OCn1ccnc1[N+](=O)[O-] [(1), 1-[2-acetoxy-1-(acetoxymethyl)ethoxy]methyl-2-nitroimidazol] | 0/2 | 0/2 | Calmed down | > 860 | – | – | – | – | – | – | – | – | – | – | – | – | – |
| CC(=O)OCC(COC(C)=O)OCn1cnc([N+](=O)[O-])n1 [(2), 1-[2-acetoxy-1-(acetoxymethyl)ethoxy]methyl-3-nitro-1,2,4-triazol] | 0/2 | 2/2 | – | 790 | 0/2 | – | – | – | – | – | – | – | – | – | – | – | – |
| O=[N+]([O-])c1ncn(COC(CO)CO)n1 [(4), 1-[2-hydroxy-1-(hydroxymethyl)ethoxy]methyl-3-nitro-1,2,4-triazol] | – | – | – | – | – | 0 | 0 | 1 | 2 | 2 | 0/2 | 1/2 | Calmed down | 860 | 1.50 | – | – |
| O=[N+]([O-])c1nccn1COC(CO)CO [Compound (3), 1-[2-hydroxy-1-(hydroxymethyl)ethoxy]methyl-2-nitroimidazol] | – | – | – | – | – | 0 | 0 | 1 | 2 | 2 | 0/2 | 0/2 | Calmed down | > 860 | 1.70 | 1.55 | 1.55 |
